From patent US20200323843A1 (IRR, Inc., priority 2010, published 2020)
“Also recorded” adds a separate entry of the source. Read-outs that look alike come from different tables or passages of the source.

Tests used:
influenza [1] = settings: 10 days; levocetirizine 5 mg po and/or montelukast 10 mg po
Description: A cohort of 20 patients between the ages of 15-30 years of age (and no other co-morbid disease processes), presenting with classic symptoms of influenza: headache, fever, dry cough and extreme fatigue, are identified and divided into four treatment groups. The first group (CONTROL) receives two placebo tablet(s) each administered together at the same time each day for a period of 10 days.
Laboratory data shall consist of a complete blood count, comprehensive metabolic panel, C-reactive protein, T and B cell lymphocyte panel, chest x-ray, and viral and aerobic cultures of the airway. Vital signs will be logged at the initial visit and the patient's fever profile tracked over the interim. Onset, duration and intensity of symptoms (headache, fever, cough, fatigue) will be logged in addition to the time to resolution of symptoms (time zero—first dose of medication(s)). Second endpoint data will include the time it takes to return to full activity, work/school.

[2] = cited from earlier work
[3] = test system: histamine induced wheal and flare; settings: cited from earlier work
human rhinovirus = settings: airway epithelial cells; cited from earlier work
[4] = test system: eosinophil migration, IL-4, IL-6, IL-8; settings: cited from earlier work
[5] = cited from earlier work; remark: listed apart in the source
[6] = cited from earlier work; remark: listed apart in the source
influenza [7] = settings: patients with influenza; cited from earlier work

O=C(O)COCCN1CCN([C@H](c2ccccc2)c2ccc(Cl)cc2)CC1 [Levocetirizine, levocetirizine]
influenza symptoms (influenza [1]): reduced fever profile and overall feeling of fatigue, without significant foreshortening of the disease process | principal side effect ([2]; at higher doses): Sedation | dose that can be safely administered ([2]; humans): up to 30 mg/day | potency among the five modern generation antihistamines ([3]; histamine induced wheal and flare data): most potent | effectiveness compared with fexofenadine ([3]; levocetirizine 5 mg per day vs fexofenadine 180 mg per day): more effective | rhinovirus-induced ICAM-1 and cytokine expression and viral replication (human rhinovirus): inhibits | eosinophil migration [4]: decrease | inflammatory mediators, IL-4, IL-6, and IL-8 [4]: decrease | Steady-state level ([5]; in vivo): 40 h | time to steady state level ([5]; in vivo): 40 h

CC(C)(O)c1ccccc1CC[C@@H](SCC1(CC(=O)O)CC1)c1cccc(/C=C/c2ccc3ccc(Cl)cc3n2)c1 [Montelukast, montelukast]
dose administered without clinically important adverse experiences ([6]; adult patients, 22 weeks): up to 200 mg/day | dose administered without clinically important adverse experiences ([6]; short-term studies, approximately one week): up to 900 mg/day | plasma concentration area under the curve profile, IV vs oral tablet ([5]; IV 7 mg vs approved 10 mg oral tablet): comparable | drug interactions with warfarin, theophylline, digoxin, terfenadine, oral contraceptives, or prednisone ([5]; in vivo, po): no drug interactions | absorption ([5]; in vivo): rapidly absorbed | linear pharmacokinetics, up to dose ([5]; in vivo): ≤ 50 mg | time to peak plasma concentration ([5]; in vivo): 3 to 4 h | oral bioavailability and Cmax, effect of a standard meal ([5]; standard meal): not affected

CCOC(=O)C1=C[C@@H](OC(CC)CC)[C@H](NC(C)=O)[C@@H](N)C1 [oseltamivir]
influenza related lower respiratory tract infections/complications (influenza [7]): has not been shown to decrease; also recorded: did not appear to reduce
